Measured values as given in patent US6297250A, “Pyrimidopyrimidine compounds” (Newcastle University Ventures Limited, priority 1997, dated 2001).
“And” between values parts separate entries of the source, which are not always exact repeats. Equal entries are not always repeated. Where two headings read alike, the source gives them in different places.

System: L1210 cells
Test: Nucleoside transport inhibition assay: inhibition of 3H-thymidine uptake, with or without AGP or HSA
Assay type: cell-based, murine
Details: for inhibition at 1 µM / inhibition at 10 µM / IC50 / inhibition at 100 µM / inhibition at 50 µM: Mus musculus; for inhibition at 1 µM: L1210, 1 μM compound; for inhibition at 10 µM: L1210, 10 μM compound; for IC50: L1210, no AGP; for inhibition at 100 µM: L1210, 100 μM compound; for % Inhibition of 3H-thymidine uptake, No AGP (5% DMSO): 50 μM compound, 50 µM; for inhibition at 50 µM: L1210, 50 μM compound
Experimental: In vitro activity. […] For testing the compounds an established nucleoside transport assay involving measurement of thymidine uptake was adapted. Murine leukaemia L1210 cells were used in this assay as their nucleoside transport characteristics are well known. This assay for measuring thymidine uptake used a modification of the rapid mixing technique of Wohleheuter, R. […] Materials used included a transport buffer comprising 130 mM NaCl, 5 mM KC1, 1 mM MgCl, 5 mM NaH2 PO4, 10 mM glucose and 10 mM HEPES. This buffer was made up as sterile 5× concentrate and reconstituted in distilled water and adjusted to pH 7.4 immediately prior to carrying out the assay. […] The supernatant was aspirated and the cells were washed with ice-cold transport buffer and centrifuged again at 1000 rpm for 5 minutes at 4° C. The supernatant was removed and the cells were resuspended in ice-cold transport buffer to give a final cell density of 2-4×10^7 cells/mi. Cells were left on ice for 30 minutes recovery prior to starting the assay. […] The suspension was mixed well and 100 μl was layered onto 150 μl silicone oil (9:11 Dow Corning 556 (Sp.Gr. 0.98):Dow Corning 550 (Sp.Gr. 1.068) (final Sp.Gr. 1.028) overlaying 50 μl 3M KOH in 6 replicate 0.5 ml microfuge tubes. […] The tubes were immediately transferred to a microfuge (Eppendorf) and spun at 12000 rpm for 2 minutes to pellet the cells through the oil and into the KOH. The tubes were capped and the cells left to solubilise in the KOH for 1 hour. Cell number and viability for each run was determined by haemocytometer counting using trypan blue exclusion. […] The tubes were capped and cut in the oil layer such that the bottom portion (cells solubilised in KOH) fell into a 20 ml scintillation vial. 1 ml 0.25M acetic acid followed by 1 ml air was injected into the tube using a 2 ml syringe and 23-gauge needle to disperse and neutralise the KOH-solubilisedcells. 10 ml of Optiphase HiSafe™ scintillant was added and the vials capped and shaken. […] The [^14 C]:[^3 H] ratio was used to calculate the amount of non-transported contaminating [^3 H]thymidine in the extracellular space.

[1] = no AGP, read-out: % Inhibition of 3H-thymidine uptake, No AGP
[2] = no AGP, 5% DMSO, read-out: % Inhibition of 3H-thymidine uptake, No AGP (5% DMSO)

Row | IC50 [nM] | Structure (SMILES) | inhibition at 1 µM [1] [%] | inhibition at 10 µM [1] [%] | inhibition at 10 µM [2] [%] | further results
1 | – | CC1(C)OC[C@@H](COc2nc(NCc3ccccc3)c3nc(OC[C@@H]4COC(C)(C)O4)nc(NCc4ccccc4)c3n2)O1 [NU3078, (R,R)-2,6-bis(2',2'-Dimethyl-1',3'-dioxolane-4'-methoxy)-4,8-dibenzylamino pyrimidopyrimidine] | – | – | – | % Inhibition of 3H-thymidine uptake, No AGP (10 μM compound, no AGP): 46 ± 3%
2 | 720 ± 380 | OCCN(CCO)c1nc(N2CCc3ccccc3C2)c2nc(N(CCO)CCO)nc(N3CCc4ccccc4C3)c2n1 [NU3080, 2,6-bis-Diethanolamino-4,8-di-(N-1,2,3,4-tetrahydroisoquinolyl)pyrimidopyrimidine] | 72 ± 22 | 100 | – | inhibition at 10 µM (+5 mg/ml AGP vs no AGP, read-out: % Reduction (of inhibition by AGP)): 31%; inhibition at 10 µM (+5 mg/ml AGP, read-out: % Inhibition of 3H-thymidine uptake, +5 mg/ml AGP): 69%
3 | 4240 | CCOC(C)(COc1nc(N2CCCCC2)c2nc(OCC(C)(OCC)OCC)nc(N3CCCCC3)c2n1)OCC [NU3065, 2,6-bis(2',2'-Diethylacetal-1-propoxy)-4,8-dipiperidinopyrimidopyrimidine] | 30 ± 7 | 65 ± 9 | – | inhibition at 100 µM [1]: 82 ± 16%
4 | – | CCOc1nc(N2CCCCC2)c2nc(OCC)nc(N3CCCCC3)c2n1 [NU3068, 2,6-Diethoxy-4,8-dipiperidinopyrimidopyrimidine] | – | – | 35 ± 4 | % Inhibition of 3H-thymidine uptake, No AGP (5% DMSO) (no AGP, 5% DMSO): 65%; inhibition at 50 µM (no AGP, 5% DMSO): 74%
5 | – | COCC(C)Oc1nc(N2CCCCC2)c2nc(OC(C)COC)nc(N3CCCCC3)c2n1 (stereo not shown) [NU3074, 2,6-Di(1'-methoxy-2'-methyl)ethoxy-4,8-dipiperidinopyrimidopyrimidine] | – | 62 ± 10 | – | inhibition at 100 µM [1]: 96 ± 7%
6 | 710 | COc1ccc(CNc2nc(N(CCO)CCO)nc3c(NCc4ccc(OC)c(OC)c4)nc(Cl)nc23)cc1OC [NU3081, 2-chloro-6-diethanolamino-4,8-bis[(3',4'-dimethoxybenzyl)amino]pyrimidopyrimidine] | 59 ± 2 | 95 ± 9 | – | –
7 | – | CC(C)Oc1nc(N2CCCCC2)c2nc(OC(C)C)nc(N3CCCCC3)c2n1 [NU3069, 2,6-Di-iso-propoxy-4,8-dipiperidinopyrimidopyrimidine] | – | – | 23 ± 12 | inhibition at 100 µM [2]: 64 ± 6%
8 | – | OCCN(CCO)c1nc(N2CCc3ccccc3C2)c2nc(Cl)nc(N3CCc4ccccc4C3)c2n1 [NU3082, 2-Chloro-6-diethanolamino-4,8-di-(N-1,2,3,4-tetrahydroisoguinolyl)pyrimidopyrimidine] | – | 22 ± 14 | – | % Inhibition of 3H-thymidine uptake, No AGP (1 μM compound, no AGP, 1 µM): 9% and 0%
9 | – | CC(C)COc1nc(N2CCCCC2)c2nc(OCC(C)C)nc(N3CCCCC3)c2n1 [NU3071, 2,6-Di-(2'-methylpropoxy)-4,8-dipiperidinopyrimidopyrimidine] | – | – | 25 ± 4 | inhibition at 100 µM [2]: 65 ± 4%
10 | – | CCCOc1nc(N(C)Cc2ccccc2)c2nc(OCCC)nc(N(C)Cc3ccccc3)c2n1 [NU3091, 2,6-Di(n)propoxy-4,8-di[(N-benzylmethyl)amino]-pyrimidopyrimidine] | – | 8.2 ± 1.1 | – | % Inhibition of 3H-thymidine uptake, No AGP (1 μM compound, no AGP): Inactive
11 | – | COc1nc(N2CCCCC2)c2nc(OC)nc(N3CCCCC3)c2n1 [NU3067, 2,6-Dimethoxy-4,8-dipiperidinopyrimidopyrimidine] | – | – | 39 ± 7 | % Inhibition of 3H-thymidine uptake, No AGP (5% DMSO) (no AGP, 5% DMSO): 76%; inhibition at 50 µM (no AGP, 5% DMSO): 81%
12 | 750 | COc1ccc(CN(C)c2nc(OCCCO)nc3c(N(C)Cc4ccc(OC)c(OC)c4)nc(OCCCO)nc23)cc1OC [NU3096, 2,6-di(-3-hydroxypropoxy)-4,8-bis[(-3,4-dimethoxybenzyl)-N-methylamino]pyrimidopyrimidine] | 54 ± 2 | – | – | –
